The numbers were not newly measured in patent US20230134521A1, “COMPOUNDS FOR METHODS FOR PROMOTING FEMALE REPRODUCTIVE HEALTH THROUGH MEDIATION OF RENIN ANGIOTENSIN FUNCTION” (priority 2021, published 2023), which cites them from elsewhere.

The test system of series [1] is pre-menopausal women with SIAD related disorders (hypoactive sexual desire disorder).
The test system of series [2] is rabbit clitoral cavernosal and vaginal smooth muscle strips. Particulars: organ bath; for relaxation of clitoral and vaginal smooth muscle: female rabbit clitoral (cavernosal) and vaginal smooth muscle.
In series [3] the test system is female sexual health, performance or libido. Particulars: doses administered to women.

Ends that are not written are not given here.

`O=c1[nH]c2ccccc2n1CCN1CCN(c2cccc(C(F)(F)F)c2)CC1` [Flibanserin, 2H-benzimidazol-2-one, 1,3-dihydro-1-[2-[4-[3(tri-fluoromethyl)phenyl]-1-piperazinyl]ethyl]]: the “share of women in whom the benefit was seen” value in series [1] (100 mg daily for a minimum of 28 days) was 18%. The “therapeutic effect on Genitopelvic Pain/Penetration Disorder (vestibulodynia, dyspareunia) or Female Orgasmic Disorder” value in series [1] (human, in vivo) is listed as “no therapeutic effect at all”. Also, the “median placebo-corrected increase in satisfying sexual events (SSEs)” value in series [1] (median baseline about 2-3 SSEs per month, over a six month period) is listed as 0.5-1.0 SSEs per month. Turning to `N=C(N)NCCC[C@H](N)C(=O)O` [L-arginine], the “relaxation of clitoral cavernosal smooth muscle strips in response to NO donors” value in series [2] (rabbit clitoral cavernosal smooth muscle strips) is “enhanced relaxation”. Regarding `CCCc1nc(C)c2c(=O)[nH]c(-c3cc(S(=O)(=O)N4CCN(CC)CC4)ccc3OCC)nn12` [Levitra], the “improvement to sexual health, performance or libido in women” value in series [3] is “without improvement”. Turning to `CCCc1nn(C)c2c(=O)[nH]c(-c3cc(S(=O)(=O)N4CCN(C)CC4)ccc3OCC)nc12` [Viagra], in series [3], the “improvement to sexual health, performance or libido in women” value is “without improvement”. On to `CCCc1nn(C)c2c(=O)[nH]c(-c3cc(S(=O)(=O)N4CCN(C)CC4)ccc3OCC)nc12` [sildenafil], for which the “relaxation of clitoral and vaginal smooth muscle” value in series [2] is reported as “dose-dependent relaxation”.

For “vasoactive intestinal polypeptide (HSDAVFTDNYTRLRKQMAVKKYLNSILN; ends and bridges not checked; UniProt P01282 125-152, looked up) [VIP, nonadrenergic/noncholinergic neurotransmitter]”, in series [2], the “relaxation of clitoral and vaginal smooth muscle” value is listed as “dose-dependent relaxation”.
